Measured values reported in ChEMBL document CHEMBL1770115, “Fused heterocyclic M1 positive allosteric modulators” (Bioorg Med Chem Lett, 2011).
Active and inactive are the calls of the source. No cut-off for these calls is given here.

How the values were obtained:
[1] = molecular target: T1, Muscarinic acetylcholine receptor M1 (Homo sapiens) (UniProt P11229); assay: Positive allosteric modulation of human muscarinic M1 receptor expressed in CHO cells assessed as effect on acetylcholine-induced calcium mobilization by FLIPR assay; assay type: functional, cell-based
T1 sequence (whole entry): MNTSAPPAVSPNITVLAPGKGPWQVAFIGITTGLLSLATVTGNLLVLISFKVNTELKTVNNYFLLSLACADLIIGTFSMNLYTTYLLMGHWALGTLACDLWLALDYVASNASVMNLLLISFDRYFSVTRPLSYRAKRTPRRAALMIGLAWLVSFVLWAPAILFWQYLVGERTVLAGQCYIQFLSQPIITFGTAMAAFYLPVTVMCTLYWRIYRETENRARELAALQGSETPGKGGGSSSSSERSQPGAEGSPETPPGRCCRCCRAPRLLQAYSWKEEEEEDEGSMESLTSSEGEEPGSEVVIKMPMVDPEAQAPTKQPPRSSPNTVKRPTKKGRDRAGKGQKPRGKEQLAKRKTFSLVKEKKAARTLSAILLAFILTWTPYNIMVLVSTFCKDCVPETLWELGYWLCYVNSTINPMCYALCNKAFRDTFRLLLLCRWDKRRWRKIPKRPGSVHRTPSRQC

Plasma = assay: Plasma concentration in Sprague-Dawley rat at 10 mg/kg, po; assay type: ADME, organism-based; design: dose 10 mg/kg, route oral; conditions: in vivo
Cerebrospinal fluid = assay: Drug concentration in Sprague-Dawley rat cerebrospinal fluid at 10 mg/kg, po; assay type: ADME, organism-based; design: dose 10 mg/kg, route oral; conditions: in vivo, read-out: Drug uptake
Brain = assay: Drug concentration in Sprague-Dawley rat barin at 10 mg/kg, po; assay type: ADME, organism-based; design: dose 10 mg/kg, route oral; conditions: in vivo, read-out: Drug uptake
[2] = Ratio of drug level in brain to plasma in Sprague-Dawley rat at 10 mg/kg, po; assay type: ADME, organism-based; design: dose 10 mg/kg, route oral
[3] = molecular target: T1, Muscarinic acetylcholine receptor M1 (Homo sapiens); assay: Positive allosteric modulation of human muscarinic M1 receptor expressed in CHO cells assessed as potentiation of acetylcholine-induced calcium mobilization at 1 uM by FLIPR assay relative to control; assay type: functional, cell-based
[4] = molecular target: T1, Muscarinic acetylcholine receptor M1 (Homo sapiens); assay: Agonist activity at human muscarinic M1 receptor expressed in CHO cells assessed as increase of calcium mobilization at 100 uM by FLIPR assay; assay type: functional, cell-based

Row | Structure (SMILES) | IP [1] | further results
1 | Cn1cc2cc(Cn3cc(C(=O)O)c(=O)c4c(F)cccc43)ccc2n1 | 142 nM | 
2 | O=C(O)c1cn(Cc2ccc3c(c2)CCC3O)c2cccc(F)c2c1=O (configuration not stated) | 97 nM | 
3 | CN1CCN(C)c2cc(Cn3cc(C(=O)O)c(=O)c4c(F)cccc43)ccc21 | 3800 nM | 
4 | O=C(O)c1cn(C/C=C/c2ccc(F)cc2)c2c(F)cccc2c1=O | 120 nM | 
5 | COc1cccc(/C=C/Cn2cc(C(=O)O)c(=O)c3cccc(F)c32)c1 | 1400 nM | 
6 | O=C(O)c1cn(Cc2ccc3ccccc3c2)c2c(F)ccc(F)c2c1=O | 266 nM | 
7 | CN1CCCc2cc(Cn3cc(C(=O)O)c(=O)c4c(F)cccc43)ccc21 | 624 nM | 
8 | O=C(O)c1cn(Cc2ccc3[nH]ncc3c2)c2cccc(F)c2c1=O | 104 nM | 
9 | O=C(O)c1cn(C/C=C/c2cccc(F)c2)c2c(F)cccc2c1=O | 370 nM | 
10 | O=C(O)c1cn(Cc2nc3ccccc3s2)c2cccc(F)c2c1=O | 1800 nM | 
11 | Cc1cccc(/C=C/Cn2cc(C(=O)O)c(=O)c3cccc(F)c32)c1 | 250 nM | 
12 | O=C(O)c1cn(Cc2ccc3ccccc3c2)c2c(F)cccc2c1=O | 80 nM | 
13 | COc1ccc(/C=C/Cn2cc(C(=O)O)c(=O)c3cccc(F)c32)cc1 | 380 nM | 
14 | O=C(O)c1cn(Cc2ccc3[nH]c(=O)[nH]c3c2)c2cccc(F)c2c1=O | 617 nM | 
15 | O=C(O)c1cn(C/C=C/c2ccc(Cl)cc2)c2c(F)cccc2c1=O | 320 nM | 
16 | O=C(O)c1cn(Cc2ccc3ncccc3c2)c2cccc(F)c2c1=O | 459 nM | 
17 | Cn1ncc2cc(Cn3cc(C(=O)O)c(=O)c4c(F)cccc43)ccc21 | 72 nM | concentration (Plasma): 13200 nM; concentration (Cerebrospinal fluid): 155 nM; concentration (Brain): 538 nM; Kp [2]: 0.04

Row | Structure (SMILES) | IP [1] | further results
18 | COc1ccccc1/C=C/Cn1cc(C(=O)O)c(=O)c2cccc(F)c21 | > 10000 nM | 
19 | O=C(O)c1cn(C/C=C/c2cccnc2)c2c(F)cccc2c1=O | > 10000 nM | 
20 | O=C(O)c1cn(CC#Cc2ccccc2)c2c(F)cccc2c1=O | 3400 nM | 
21 | Cc1ccc(/C=C/Cn2cc(C(=O)O)c(=O)c3cccc(F)c32)cc1 | 910 nM | 
22 | O=C(O)c1cn(Cc2ccc3ccccc3n2)c2cccc(F)c2c1=O | 897 nM | 
23 | O=C(O)c1cn(C/C=C/c2ccccn2)c2c(F)cccc2c1=O | 5200 nM | 
24 | O=C(O)c1cn(C/C=C/c2ccncc2)c2c(F)cccc2c1=O | 610 nM | 
25 | O=C1Cc2cc(Cn3cc(C(=O)O)c(=O)c4c(F)cccc43)ccc2N1 | 81 nM | 
26 | O=C(O)c1cn(C/C=C/c2ccccc2)c2c(F)cccc2c1=O | 270 nM | 
27 | CN(C)c1ccc(/C=C/Cn2cc(C(=O)O)c(=O)c3cccc(F)c32)cc1 | 860 nM | 
28 | N#Cc1ccc(/C=C/Cn2cc(C(=O)O)c(=O)c3cccc(F)c32)cc1 | 1000 nM | 
29 | O=C(O)c1cn(Cc2ccc3c(c2)OCCO3)c2cccc(F)c2c1=O | 84 nM | concentration (Plasma): 3700 nM; concentration (Cerebrospinal fluid): 119 nM; concentration (Brain): 577 nM; Kp [2]: 0.15
30 | O=C(O)c1cn(C/C=C/c2ccccc2F)c2c(F)cccc2c1=O | 240 nM | 
31 | Cc1ccccc1/C=C/Cn1cc(C(=O)O)c(=O)c2cccc(F)c21 | > 10000 nM | 
32 | O=C(O)c1cn(Cc2ccc3ccccc3c2)c2cccc(F)c2c1=O | 69 nM | fold change (FC) [3]: 100; concentration (Plasma): 676 nM; concentration (Cerebrospinal fluid): 18 nM; concentration (Brain): 178 nM; Activity [4]: Active; Kp [2]: 0.26
33 | CN1CCc2cc(Cn3cc(C(=O)O)c(=O)c4c(F)cccc43)ccc21 | > 10000 nM | 
